In patent US9596874B2, “Bitter taste masking compositions and method of masking bitter taste” (Givaudan S.A., priority 2010, dated 2017):

Assay: Panel tasting of KCl/NaCl solutions in water
Conditions: for masking of the off-notes of KCl: 5000 ppm sugar alcohol in water with 1600 ppm KCl and 800 ppm NaCl, panel of professional tasters
Procedure: Three solutions were prepared: • A 1600 ppm of KCl and 800 ppm of NaCl in water • B 1600 ppm of KCl and 800 ppm of NaCl in water containing 5000 ppm of mannitol • C 1600 ppm of KCl and 800 ppm of NaCl in water containing 5000 ppm of dulcitol The solutions were compared by a panel of professional tasters.

| SMILES | masking compared with mannitol (5000 ppm dulcitol vs 5000 ppm mannitol, 1600 ppm KCl and 800 ppm NaCl in water, panel) | taste perception (5000 ppm dulcitol, 1600 ppm KCl and 800 ppm NaCl in water, panel) | masking of the off-notes of KCl |
| --- | --- | --- | --- |
| OC[C@@H](O)[C@H](O)[C@H](O)[C@@H](O)CO [dulcitol, Galactitol (=dulcitol)] | noticeably better in masking | more positive, described as ‘rounded-off’, perception | mask the off-notes KCl well |
| OC[C@@H](O)[C@@H](O)[C@H](O)[C@H](O)CO [mannitol, Mannitol] |  |  | mask the off-notes KCl well |
